The values below come from patent publication US20110263485A1, “Bifunctional Griffithsin Analogs” (priority 2009, published 2011).

Several values for one entry are separate records, joined by “and”; a condition that tells them apart may be missing. Identical values can stand only once. Like-named read-outs stand apart in the source and are kept apart here.

For series [1], the system named is ADA (R5) pseudovirus in TZM-bl cells. As to conditions: for IC50: read-out: ADA (R5) single round pseudovirus IC50.
The test system of series [2] is HeLa-ADA effector cells (HIV-1 ADA (R5) env) and HeLa-P5L target cells (CD4, CCR5). Nature of the series: R5 cell-cell fusion assay. The conditions noted are these: for IC50: read-out: R5 fusion assay IC50.
Another series has as its system X4 fusion. As to conditions: Martin et al. (2003); cited from earlier work.
Another series relates to CCR5-tropic fusion. As to conditions: published reports, vaccinia technology; cited from earlier work.
In series [3] the test system is HL2/3 effector cells (HXB2 env (X4)) and HeLa-TZM target cells. The series is described as follows: X4 cell-cell fusion assay. It counts as cell-based, HIV-1. From the text: In the X4 fusion assay, HeLa-TZM cells were used as target cells and HL2/3 cells were used as effector cells.
A further series has as its system IIIB (X4) in MAGI cells. The series is described as follows: replication competent HIV assay, IIIB in MAGI cells. It counts as cell-based.
Another series concerns 91US005 (R5) in PBMC. Nature of the series: HIV-1 replication in PBMC, 91US005. It counts as cell-based.
Series [4] relates to HeLa ADA cells pre-incubated with inhibitor, washed, then HeLa P5L cells. The series is described as follows: R5 fusion assay with wash-out on ADA cells.
Series [5] has as its system NL4-3 (CXCR4-tropic) in PBMCs. Nature of the series: HIV-1 replication in PBMC, NL4-3. As to conditions: combinations as total protein concentration. Format: cell-based.
The subject of the next series is Ba-L (R5) in MAGI cells. The series is described as follows: replication competent HIV assay, Ba-L in MAGI cells. Format: cell-based.
Another series relates to rabbit vaginal model. The conditions noted are these: in vivo; cited from earlier work.
Series [6] has as its system 92HT599 (CXCR4-tropic) in PBMCs. The series is described as follows: HIV-1 replication in PBMC, 92HT599. Format: cell-based. As to conditions: combinations as total protein concentration.
For a further series, the system named is ADA (R5) in MAGI cells. The series is described as follows: replication competent HIV assay, ADA in MAGI cells. Format: cell-based.
Another series concerns human cervical explants. As to conditions: cited from earlier work.
The next series concerns multiple clades of HIV. The conditions noted are these: cited from earlier work.
In series [7] the test system is HIV. The conditions noted are these: cited from earlier work.
The subject of a further series is Ba-L (R5) in PBMC. The series is described as follows: HIV-1 replication in PBMC, Ba-L. Format: cell-based.
Series [8] concerns HeLa P5L cells pre-incubated with inhibitor, washed, then HeLa ADA cells. Nature of the series: R5 fusion assay with wash-out on P5L cells.
Series [9] concerns HeLa-ADA effector cells and HeLa-P5L target cells seeded with 3T3 cells. The series is described as follows: competition R5 fusion assay with mouse 3T3 competitor cells. The conditions noted are these: for inhibition in R5 fusion assay with competitor cells, in words: mouse 3T3 competitor cells. Format: cell-based, HIV-1. On the procedure:
In the competition R5 fusion assay, 5×10^3 HeLa-P5L cells were seeded together with 5×10^3 3T3 cells per well. The rest of the procedure was identical to the normal R5 fusion assay.
For a potential therapeutic to be beneficial in an organism, it needs to be able to effectively find its target in the milieu of other cell types and potential binding partners. As a test of this ability, the R5 cell fusion assay was modified with the addition of unrelated mouse 3T3 cells.

In series [10] the test system is JRFL (R5) pseudovirus in TZM-bl cells. The series is described as follows: single round infection assay, JRFL pseudovirus.
Series [11] deals with HIV. As to conditions: read-out: IC50 (50% inhibition) in in vitro assays; Root & Steger (2004); cited from earlier work.
The conditions of series [12]: cited from earlier work.

In the case of “Ac-HTTWMEWDREINNYTSLIHSLIEESQNLQEKNEQELL-NH2 [C37(Q652L)]”, the 50% inhibitory concentration (IC50) in [1] stood at 114 ± 4.94 nM; in series [2], 28.2 ± 8.34 nM.

Regarding “CD4M33: 27 amino acid peptide designed by Martin et al. as a mimic of human CD4 binding HIV gp120 (CNLHFCQLRCKSLGLLGKCAGSFCACV)”, the IC50 with X4 fusion is 800 ± 90 nM. Further, the “amount required to inhibit CCR5-tropic fusion” value with CCR5-tropic fusion was “micromolar amounts of the peptide are required”.

Turning to “Griff37 I642D: Griff37 with substitution of Asp for Ile at position 642 in C37”, in [2], the “inhibition in R5 fusion assay, in words” value is on record as “shows decreased activity”.

On to “GriffC37(Q652L): Griff37 with point mutation Q652L in the C37 part”, for which the “inhibition in X4 fusion assay, in words” value in series [3] is “similar”. Further, the “inhibition in R5 fusion assay, in words” value in series [2] is “approximately the same effectiveness as Griff37”.

Regarding Griffithsin, the IC50 in [3] is 0.48 nM and 0.468 nM; in [1] it was 0.008 ± 0.016 nM; in the series on IIIB (X4) in MAGI cells it was 0.145 ± 0.065 nM; in series [2], 1.31 nM and 1.3 nM; in the series with 91US005 (R5) in PBMC (PBMCs, Table 8, combinations as total protein concentration, read-out: 91US005 (CCR5-tropic) IC50), 0.28 ± 0.17 nM; with 91US005 (R5) in PBMC (Table 7, read-out: 91US005 (R5) in PBMC IC50) it was 0.16 ± 0.03 nM. Besides, the 50% inhibitory concentration (IC50) in [4] (read-out: R5 fusion with wash-out on ADA cells IC50) amounted to 4.28 ± 1.5 nM; in series [5], 0.17 ± 0.04 nM; in the series with Ba-L (R5) in MAGI cells it was 0.04 nM; in [6] it was 0.74 ± 0.37 nM; in the series with ADA (R5) in MAGI cells it was 0.03 ± 0.01 nM; in the series on Ba-L (R5) in PBMC (PBMCs, Table 8, combinations as total protein concentration, read-out: Ba-L (CCR5-tropic) IC50), 0.28 ± 0.17 nM. Further, the concentration for half-maximal inhibition (IC50) stood at 0.28 ± 0.17 nM in the series on Ba-L (R5) in PBMC (Table 7, read-out: Ba-L (R5) in PBMC IC50); 7.34 ± 3.58 nM in series [8] (read-out: R5 fusion with wash-out on P5L cells IC50); 1.73 ± 0.603 nM in series [9] (3T3 competitor cells); 0.035 ± 0.008 nM in [10] (read-out: JRFL (R5) single round pseudovirus IC50). Moreover, the IC90 in series [1] (read-out: ADA (R5) single round pseudovirus IC90) was determined as 0.164 ± 0.069 nM; in the series with IIIB (X4) in MAGI cells it was 0.89 ± 0.11 nM; with 91US005 (R5) in PBMC (PBMCs, Table 8, combinations as total protein concentration, read-out: 91US005 (CCR5-tropic) IC90), 0.76 ± 0.15 nM; with 91US005 (R5) in PBMC (Table 7, read-out: 91US005 (R5) in PBMC IC90), 0.51 ± 0.08 nM; in series [5], 0.725 ± 0.13 nM; with Ba-L (R5) in MAGI cells, 0.515 ± 0.055 nM. Besides, the IC90 in series [6] turned out to be 1.86 ± 0.89 nM; in the series on ADA (R5) in MAGI cells, 0.45 ± 0.04 nM; with Ba-L (R5) in PBMC (PBMCs, Table 8, combinations as total protein concentration, read-out: Ba-L (CCR5-tropic) IC90) it was 0.76 ± 0.15 nM; with Ba-L (R5) in PBMC (Table 7, read-out: Ba-L (R5) in PBMC IC90), 0.76 ± 0.15 nM; in series [10] (read-out: JRFL (R5) single round pseudovirus IC90) it was 1.25 ± 0.19 nM. In addition, the “inhibition after wash-out on ADA cells, in words” value in [4] is on record as “maintained nanomolar effectiveness”. For the same substance, in the series on rabbit vaginal model, the “irritation in a rabbit vaginal model” value is “non irritating”. Further, the “inflammation in human cervical explants” value in the series on human cervical explants is “non-inflammatory”. Besides, in the series on multiple clades of HIV, the “activity against clades of HIV” value was “active against multiple clades of HIV”. Moreover, in the series with HIV [7], the “activity in cervical/vaginal lavage fluid” value is on record as “retains its activity”. Besides, in [8], the “inhibition after wash-out on target (P5L) cells, in words” value is on record as “still performed well”. The “inhibition in R5 fusion assay with competitor cells, in words” value in series [9] is “still performs well”.

Turning to “P2-RANTES-linker-Griffithsin: P2-RANTES linked to Griffithsin; SEQ ID NO. 4”, the “inhibition in R5 fusion assay, in words” value in series [2] is on record as “more effective than Griffithsin alone”. In addition, in [9], the “inhibition in R5 fusion assay with competitor cells, in words” value was “appeared to perform better than either protein alone”.

With enfuvirtide, the IC50 in the series with HIV [11] is 2 to 20 nM. Further, the lifetime in vivo entry in [12] is given as “short lifetime of only hours in vivo”.
